Reference: the supplement of paper PMC10307832

Key:
Experiment in all cases: relative viability (nuclei count vs DMSO), 5 days (fraction); higher = more cells survive
[1] = compound: Cc1ccc2nc(NCCN)c3ncc(C)n3c2c1
Outline: (§1)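 After an overnight hold at 37 °C, lung cancer cell lines in 1536-well plates were pinned with five library-drug doses (not always all listed), each √10 from the next, on vehicle-anchored plates. The cells stayed 5 days without fresh medium, then a one-step fix, permeabilisation and Hoechst stain preceded 4× imaging and MetaXpress nuclear counts. A plate passed only with control CV under 25% and at least one doubling. Viability is the median, over plates, of treated-well nuclei relative to vehicle-well nuclei.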

Salubrinal = compound: O=C(/C=C/c1ccccc1)NC(NC(=S)Nc1cccc2cccnc12)C(Cl)(Cl)Cl [Salubrinal]
Outline: as §1

[2] = compound: Cc1ccc2nc(NCCN)c3ncc(C)n3c2c1 + Cc1nc(NC(=O)N2CCC[C@H]2C(N)=O)sc1-c1ccnc(C(C)(C)C(F)(F)F)c1 [Alpelisib] (partner 2 µM)
Outline: (§2)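 Relative viability equals treated-well nuclei counts divided by vehicle-well nuclei counts. Counts came from 4× images of lung cancer cell lines grown in 1536-well plates for 5 days after pin-tool dosing on the day after seeding. Dosing used one drug alone or a fixed anchor-drug dose plus five library-drug doses (not always all listed) in √10 steps, and values are medians of duplicate plates.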

Salubrinal + Bortezomib = compound: O=C(/C=C/c1ccccc1)NC(NC(=S)Nc1cccc2cccnc12)C(Cl)(Cl)Cl [Salubrinal] + CC(C)C[C@H](NC(=O)[C@H](Cc1ccccc1)NC(=O)c1cnccn1)B(O)O [Bortezomib] (partner 0.002 µM)
Outline: as §2

Cell Line | relative viability ([1]; 0.04 µM) | relative viability ([1]; 0.1265 µM) | relative viability ([1]; 0.4 µM) | relative viability ([1]; 1.265 µM) | relative viability ([1]; 4 µM) | relative viability (Salubrinal; 0.08 µM) | relative viability (Salubrinal; 0.253 µM) | relative viability (Salubrinal; 0.8 µM) | relative viability (Salubrinal; 2.53 µM) | relative viability (Salubrinal; 8 µM) | relative viability ([2]; first compound 0.04 µM) | relative viability ([2]; first compound 0.1265 µM) | relative viability ([2]; first compound 0.4 µM) | relative viability ([2]; first compound 1.265 µM) | relative viability ([2]; first compound 4 µM) | relative viability (Salubrinal + Bortezomib; first compound 0.08 µM) | relative viability (Salubrinal + Bortezomib; first compound 0.253 µM) | relative viability (Salubrinal + Bortezomib; first compound 0.8 µM) | relative viability (Salubrinal + Bortezomib; first compound 2.53 µM) | relative viability (Salubrinal + Bortezomib; first compound 8 µM)
EMC-BAC-2 | 1 | 1 | 0.966 | 1.08 | 0.946 | 0.934 | 1.06 | 1.25 | 0.996 | 0.973 | 0.748 | 0.722 | 0.72 | 0.793 | 0.719 | 1.16 | 0.974 | 1.09 | 1.16 | 1.17
NCI-H1993 | 0.948 | 0.995 | 0.779 | 0.941 | 0.789 | 0.98 | 0.857 | 1.02 | 1 | 1.1 | 0.69 | 0.666 | 0.649 | 0.625 | 0.693 | 1.09 | 1.05 | 1.31 | 1.01 | 1.28
NCI-H520 | 1.13 | 0.912 | 0.933 | 0.915 | 0.845 | 1.05 | 1.01 | 1.07 | 1.03 | 1.14 | 0.882 | 1.05 | 0.957 | 0.781 | 1.03 | 0.881 | 0.439 | 0.793 | 0.633 | 0.435
NCI-H647 | 1.13 | 0.993 | 0.934 | 0.865 | 0.741 | 1.18 | 0.98 | 1.11 | 0.964 | 0.884 | 1.05 | 1.01 | 1.06 | 1.26 | 1 | 1.05 | 1.37 | 1.2 | 1.06 | 0.792
NCI-H1792 | 0.984 | 0.987 |  | 0.963 | 0.826 | 1.05 |  | 1.32 | 1.01 | 0.811 | 0.696 | 0.678 | 0.615 | 0.527 | 0.661 | 1.2 |  | 1.23 | 0.92 | 0.806
SK-LU-1 | 1.06 | 1 | 1.03 | 1.05 | 0.976 | 1.11 | 0.905 | 1.19 | 1.11 | 0.878 | 1.11 | 0.961 | 1.1 | 1.01 | 0.937 | 1 | 1.07 | 1.63 | 1.21 | 0.941
NCI-H1299 | 1.01 | 0.986 | 0.969 | 0.972 | 0.928 | 1.03 | 1.06 | 1 | 0.996 | 0.987 | 1.03 | 1.1 | 1.05 | 1.08 | 0.993 | 1.05 | 0.971 | 1.02 | 1.02 | 1.02
NCI-H2009 | 1.04 | 0.982 | 1.03 | 1.02 | 0.947 | 1.03 | 1.03 | 1.02 | 0.993 | 0.906 | 1.23 | 1.17 | 1.16 | 1.19 | 1.05 | 1.07 | 1.05 | 1.01 | 1.01 | 0.771
LOU-NH91 | 1.01 | 0.961 | 0.949 | 0.979 | 0.901 | 0.985 | 0.976 | 1.04 | 0.983 | 0.937 | 0.739 | 0.736 | 0.735 | 0.674 | 0.696 | 0.481 | 0.406 | 0.55 | 0.505 | 0.477
NCI-H2405 | 1.02 | 1.01 | 1.03 | 1.05 | 0.915 | 1.01 | 1.03 | 1.09 | 1.03 | 0.966 | 0.835 | 0.698 | 0.801 | 0.728 | 0.696 | 1.11 | 0.963 | 1.02 | 1.04 | 1.05
LCLC-97TM1 | 1.07 | 0.934 | 0.978 | 1.04 | 0.899 | 1.07 | 1.06 | 1.21 | 0.992 | 1.11 | 0.321 | 0.241 | 0.225 | 0.183 | 0.194 | 0.995 |  | 1.22 | 0.626 | 0.637
NCI-H596 | 0.952 | 0.934 | 1.02 | 0.937 | 0.909 | 1.08 | 0.89 | 1.01 | 0.896 | 0.982 | 0.56 | 0.46 | 0.446 | 0.491 | 0.452 | 1.1 | 0.807 | 1.01 | 1.13 | 1
NCI-H727 | 0.969 | 0.734 | 1.14 | 0.949 | 0.994 | 1.01 | 1.45 | 1.11 | 0.827 | 0.797 | 0.54 | 0.618 | 0.62 | 0.599 | 0.471 | 0.748 | 0.504 | 0.983 | 0.862 | 0.741
H3255 | 1.02 | 0.9 | 0.886 | 1.06 | 0.843 | 1.07 | 0.965 | 1.11 | 0.958 | 0.949 | 0.77 | 0.613 | 0.705 | 0.659 | 0.593 | 0.816 | 0.826 | 1.23 | 0.767 | 0.761
NCI-H1437 | 1.02 | 0.982 | 0.988 | 0.939 | 0.873 | 0.992 | 0.922 | 1.12 | 1.02 | 0.968 | 0.926 | 0.914 | 1.02 | 0.904 | 0.907 | 0.667 | 0.474 | 0.68 | 0.535 | 0.465
LU99A | 1.07 | 0.904 | 0.986 | 0.961 | 0.839 | 1.07 | 0.862 | 1.03 | 0.9 | 0.898 | 0.59 | 0.539 | 0.576 | 0.609 | 0.464 | 1.3 | 1.31 | 1.37 | 0.971 | 0.909
HCC-827 | 1.07 | 1.04 | 1.02 | 1.04 | 1.05 | 1.04 | 1.07 | 1.01 | 1.01 | 1.03 | 0.964 | 1.02 | 0.941 | 0.958 | 0.905 | 0.98 | 0.955 | 1.23 | 1.05 | 1.07
HCC-366 | 1.03 | 1.04 | 1.05 | 0.98 | 0.992 | 1.09 | 0.915 | 1.04 | 1.01 | 1.04 | 0.552 | 0.329 | 0.455 | 0.433 | 0.276 | 1.21 | 0.608 | 1.22 | 1.08 | 1.05
BEN | 1.07 | 0.931 | 0.93 | 1.03 | 1.04 | 1.07 | 0.961 | 1.07 | 1.15 | 0.976 | 1.06 | 0.787 | 1.09 | 0.807 | 1.19 | 0.716 | 0.721 | 0.979 | 0.941 | 0.909
NCI-H23 | 1.06 | 1.11 | 0.853 | 1.09 | 0.907 | 1.11 | 0.858 | 1.18 | 0.995 | 1.08 | 0.893 | 0.572 | 0.797 | 0.614 | 0.696 | 1.25 | 0.871 | 1.2 | 1.04 | 1.16
201T | 1.03 | 0.993 | 0.978 | 1.04 | 0.948 | 1.03 | 0.869 | 1.12 | 1.02 | 0.983 | 1.03 | 1.01 | 1.02 | 1.05 | 1.02 | 1.14 | 1.06 | 1.14 | 1.09 | 1.11
NCI-H460 | 0.99 | 0.971 | 0.99 | 0.999 | 0.943 | 1.16 | 0.946 | 1.11 | 0.983 | 0.918 | 0.54 | 0.495 | 0.476 | 0.382 | 0.374 | 1.66 | 0.452 | 1.4 | 1.08 | 1.21
NCI-H661 | 1 | 1.03 | 0.996 | 0.985 | 0.969 | 1.09 | 0.928 | 0.992 | 0.937 | 0.998 | 0.82 | 0.79 | 0.812 |  | 0.474 | 0.876 | 0.781 | 0.714 | 0.821 | 0.865
HCC-15 | 1 | 1.09 | 0.907 | 0.916 | 0.86 | 1.13 | 0.93 | 1.14 | 1.08 | 0.963 | 0.879 | 0.906 | 0.93 | 0.868 | 0.814 | 1.13 | 0.804 | 1.14 | 1.15 | 0.997
NCI-H1563 | 1.02 | 0.909 | 0.947 | 1.03 | 1.01 | 1.01 | 0.942 | 0.943 | 0.919 | 0.911 | 0.902 | 0.962 | 1.07 | 1.13 | 0.905 | 0.791 | 0.937 | 0.859 | 0.844 | 0.776
ABC-1 | 0.987 | 1.01 | 0.97 | 1.04 | 0.822 | 0.978 | 0.909 | 0.902 | 1.01 | 0.849 | 1.15 | 1.27 | 1.18 | 1.15 | 0.742 | 0.322 | 0.35 | 0.363 | 0.303 | 0.281
LCLC-103H | 1 | 0.974 | 0.918 | 1.08 | 0.955 | 1.07 | 0.932 | 1.05 | 1.09 | 0.935 | 0.996 | 0.938 | 0.94 | 0.884 | 0.991 | 0.97 | 0.971 | 1.2 | 1 | 1.15
NCI-H441 | 1.1 | 1.05 | 1.09 | 1.11 | 0.964 | 1.25 | 1.02 | 1.34 | 1.03 | 0.784 | 0.646 | 0.719 | 0.843 | 0.746 | 0.928 | 0.392 | 0.516 | 0.386 | 0.372 | 0.362
EPLC-272H | 1.01 | 1.13 | 0.992 | 1 | 0.835 | 0.917 | 0.884 | 1.07 | 0.98 | 0.765 | 1.07 | 0.937 | 0.896 | 1.06 | 0.96 | 0.884 | 0.756 | 1.11 | 1.1 | 0.855
